{
  "source": "ChEMBL document CHEMBL5236625",
  "about": "“New class of fused [3,2-b][1,2,4]triazolothiazoles for targeting glioma in vitro” (Bioorg Med Chem Lett, 2023)",
  "key": {"C6 [1]": {"test_system": "C6", "test": "Cytotoxicity against rat C6 cells assessed as cell viability measured upto 108 hrs by MTT assay", "assay_type": "functional, cell-based", "conditions": "C6, 108 h"}, "LN-18 [2]": {"test_system": "LN-18", "test": "Cytotoxicity against human LN-18 cells assessed as cell viability measured upto 108 hrs by MTT assay", "assay_type": "functional, cell-based", "conditions": "LN-18, 108 h"}, "C6 [3]": {"test_system": "C6", "test": "Inhibition of colony formation in rat C6 cells at 10 to 100 uM measured after 48 hrs by clonogenic assay", "assay_type": "functional, cell-based", "conditions": "dose 10-100 µM"}, "LN-18 [4]": {"test_system": "LN-18", "test": "Inhibition of colony formation in human LN-18 cells at 10 to 100 uM measured after 48 hrs by clonogenic assay", "assay_type": "functional, cell-based", "conditions": "dose 10-100 µM"}, "C6 [5]": {"test_system": "C6", "test": "Antimigratory activity against rat C6 cells assessed as rate of cell migration measured at 100 uM by wound healing assay (reference value: 21.95 um/hr)", "assay_type": "functional"}, "LN-18 [6]": {"test_system": "LN-18", "test": "Antimigratory activity against human LN-18 cells assessed as rate of cell migration measured at 100 uM by wound healing assay (reference value: 24.46 um/hr)", "assay_type": "functional"}, "C6 [7]": {"test_system": "C6", "test": "Induction of cell cycle arrest in rat C6 cells assessed as cell population in G2-M phase at 10 uM (reference value: 19.3%)", "assay_type": "functional"}, "LN-18 [8]": {"test_system": "LN-18", "test": "Induction of cell cycle arrest in human LN-18 cells assessed as cell population in G2-M phase at 10 uM (reference value: 39.4%)", "assay_type": "functional"}, "C6 [9]": {"test_system": "C6", "test": "Induction of apoptosis in rat C6 cells assessed as cell population in […] at 50 to 100 uM (reference value: 2 to 7%)", "assay_type": "functional", "conditions": "dose 50-100 µM"}, "LN-18 [10]": {"test_system": "LN-18", "test": "Induction of apoptosis in human LN-18 cells assessed as cell population in […] at 50 to 100 uM (reference value: 2 to 7%)", "assay_type": "functional", "conditions": "dose 50-100 µM"}, "Rattus norvegicus": {"species_on_record": "Rattus norvegicus", "test": "Inhibition of ERK phosphorylation in rat C6 cells by Western blot analysis", "assay_type": "cell-based", "conditions": "dose 50-100 µM"}, "LN-18 [11]": {"test_system": "LN-18", "test": "Inhibition of ERK phosphorylation in human LN-18 cells by Western blot analysis", "assay_type": "cell-based", "conditions": "dose 10-100 µM"}, "C6 [12]": {"test_system": "C6", "test": "Inhibition of AKT phosphorylation at Thr308 in rat C6 cells by Western blot analysis", "assay_type": "cell-based", "conditions": "dose 10-100 µM"}, "C6 [13]": {"test_system": "C6", "test": "Inhibition of AKT phosphorylation at Ser473 in rat C6 cells by Western blot analysis", "assay_type": "cell-based", "conditions": "dose 10-100 µM"}, "[14]": {"target": "T1, Serine/threonine-protein kinase AKT (Homo sapiens) (UniProt P31751+Q9Y243+P31749)", "T1 sequence (P31749 whole entry, looked up)": "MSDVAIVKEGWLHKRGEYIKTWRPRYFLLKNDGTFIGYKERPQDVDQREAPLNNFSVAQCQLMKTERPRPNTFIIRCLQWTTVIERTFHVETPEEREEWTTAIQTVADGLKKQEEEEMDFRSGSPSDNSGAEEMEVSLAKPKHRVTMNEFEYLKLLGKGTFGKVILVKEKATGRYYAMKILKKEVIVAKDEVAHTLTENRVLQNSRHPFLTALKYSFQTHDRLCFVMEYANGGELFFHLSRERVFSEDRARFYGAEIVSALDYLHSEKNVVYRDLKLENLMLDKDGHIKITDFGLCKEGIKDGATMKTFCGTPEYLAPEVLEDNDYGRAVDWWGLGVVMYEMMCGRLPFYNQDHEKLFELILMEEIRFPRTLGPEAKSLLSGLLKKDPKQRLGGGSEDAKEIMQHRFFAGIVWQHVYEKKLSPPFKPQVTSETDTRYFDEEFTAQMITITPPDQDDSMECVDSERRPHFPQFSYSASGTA", "T1 sequence (P31751 whole entry, looked up)": "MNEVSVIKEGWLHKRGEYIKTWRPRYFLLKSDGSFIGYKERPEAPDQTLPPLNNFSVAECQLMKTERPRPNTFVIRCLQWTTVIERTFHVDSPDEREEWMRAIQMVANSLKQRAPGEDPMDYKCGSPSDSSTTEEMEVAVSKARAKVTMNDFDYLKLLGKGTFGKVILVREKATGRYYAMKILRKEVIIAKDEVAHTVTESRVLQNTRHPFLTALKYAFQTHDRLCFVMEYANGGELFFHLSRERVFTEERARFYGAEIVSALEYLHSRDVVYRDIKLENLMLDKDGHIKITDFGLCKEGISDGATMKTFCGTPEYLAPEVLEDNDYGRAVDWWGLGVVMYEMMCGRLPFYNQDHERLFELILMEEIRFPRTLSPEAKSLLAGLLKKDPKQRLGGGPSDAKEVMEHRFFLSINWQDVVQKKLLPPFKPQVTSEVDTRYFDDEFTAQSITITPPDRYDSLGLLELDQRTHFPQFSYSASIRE", "T1 sequence (Q9Y243 whole entry, looked up)": "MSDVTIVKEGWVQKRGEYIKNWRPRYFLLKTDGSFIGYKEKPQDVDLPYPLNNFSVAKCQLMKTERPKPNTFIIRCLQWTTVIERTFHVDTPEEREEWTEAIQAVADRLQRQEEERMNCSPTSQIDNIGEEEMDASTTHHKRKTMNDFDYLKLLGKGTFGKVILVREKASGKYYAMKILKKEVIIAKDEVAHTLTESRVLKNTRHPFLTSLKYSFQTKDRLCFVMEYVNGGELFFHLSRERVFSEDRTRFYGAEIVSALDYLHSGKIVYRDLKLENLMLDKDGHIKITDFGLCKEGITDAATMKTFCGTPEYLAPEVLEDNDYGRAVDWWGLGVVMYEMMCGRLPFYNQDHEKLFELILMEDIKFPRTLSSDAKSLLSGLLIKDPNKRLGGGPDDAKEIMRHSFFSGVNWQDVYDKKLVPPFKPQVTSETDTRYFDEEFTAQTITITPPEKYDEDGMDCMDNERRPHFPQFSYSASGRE", "test": "Inhibition of AKT phosphorylation at Thr308 in human LN-18 cells by Western blot analysis", "assay_type": "cell-based", "conditions": "dose 10-100 µM"}, "[15]": {"target": "T1, Serine/threonine-protein kinase AKT (Homo sapiens)", "test": "Inhibition of AKT phosphorylation at Ser473 in human LN-18 cells by Western blot analysis", "assay_type": "cell-based", "conditions": "dose 10-100 µM"}, "C6 [16]": {"test_system": "C6", "test": "Induction of apoptosis in rat C6 cells assessed as reduction in IRE1 expression at 10 to 100 uM by Western blot analysis", "assay_type": "functional, cell-based", "conditions": "dose 10-100 µM"}, "LN-18 [17]": {"test_system": "LN-18", "test": "Induction of apoptosis in human LN-18 cells assessed as reduction in IRE1 expression at 10 to 100 uM by Western blot analysis", "assay_type": "functional, cell-based", "conditions": "dose 10-100 µM"}, "C6 [18]": {"test_system": "C6", "test": "Induction of apoptosis in rat C6 cells assessed as reduction in XBP1 expression at 10 to 100 uM by Western blot analysis", "assay_type": "functional, cell-based", "conditions": "dose 10-100 µM"}, "LN-18 [19]": {"test_system": "LN-18", "test": "Induction of apoptosis in human LN-18 cells assessed as reduction in XBP1 expression at 10 to 100 uM by Western blot analysis", "assay_type": "functional, cell-based", "conditions": "dose 10-100 µM"}, "C6 [20]": {"test_system": "C6", "test": "Induction of apoptosis in rat C6 cells assessed as increase in Bax expression at 10 to 100 uM by Western blot analysis", "assay_type": "functional, cell-based", "conditions": "dose 10-100 µM"}, "LN-18 [21]": {"test_system": "LN-18", "test": "Induction of apoptosis in human LN-18 cells assessed as increase in Bax expression at 10 to 100 uM by Western blot analysis", "assay_type": "functional, cell-based", "conditions": "dose 10-100 µM"}, "[22]": {"test": "Solubility in DMSO", "assay_type": "physicochemical"}, "C6 [23]": {"test_system": "C6", "test": "Induction of cell cycle arrest in rat C6 cells assessed as cell population in sub-G1 phase at 10 uM (reference value: 60%)", "assay_type": "functional"}, "LN-18 [24]": {"test_system": "LN-18", "test": "Induction of cell cycle arrest in human LN-18 cells assessed as cell population in sub-G1 phase at 10 uM (reference value: 44%)", "assay_type": "functional"}},
  "note": "pIC50: −log10 of the molar value. The source made the active and inactive calls. The rule behind the calls is not given here.",
  "data": [
    {"smiles": "O=C1c2ccccc2C(=O)N1c1nc2scc(-c3ccc(Br)cc3)n2n1", "values": [
      {"measurement": "pIC50", "setting": "C6 [1]", "value": 5.09},
      {"measurement": "pIC50", "setting": "LN-18 [2]", "value": 4.90},
      {"measurement": "inhibition", "setting": "C6 [3]", "value": "Active"},
      {"measurement": "inhibition", "setting": "LN-18 [4]", "value": "Active"},
      {"measurement": "Activity", "setting": "C6 [5]", "value": 8.96, "unit": "um/hr"},
      {"measurement": "Activity", "setting": "LN-18 [6]", "value": 14.36, "unit": "um/hr"},
      {"measurement": "Activity", "setting": "C6 [7]", "value": 31.9, "unit": "%"},
      {"measurement": "Activity", "setting": "LN-18 [8]", "value": 54.9, "unit": "%"},
      {"measurement": "Activity", "setting": "C6 [9]", "value": 47, "unit": "%"},
      {"measurement": "Activity", "setting": "LN-18 [10]", "value": 47, "unit": "%"},
      {"measurement": "inhibition", "setting": "Rattus norvegicus", "value": "Dose-Dependent Effect"},
      {"measurement": "inhibition", "setting": "LN-18 [11]", "value": "Dose-Dependent Effect"},
      {"measurement": "inhibition", "setting": "C6 [12]", "value": "Dose-Dependent Effect"},
      {"measurement": "inhibition", "setting": "C6 [13]", "value": "Dose-Dependent Effect"},
      {"measurement": "inhibition", "setting": "[14]", "value": "Dose-Dependent Effect"},
      {"measurement": "inhibition", "setting": "[15]", "value": "Dose-Dependent Effect"},
      {"measurement": "Activity", "setting": "C6 [16]", "value": "Active"},
      {"measurement": "Activity", "setting": "LN-18 [17]", "value": "Active"},
      {"measurement": "Activity", "setting": "C6 [18]", "value": "Active"},
      {"measurement": "Activity", "setting": "LN-18 [19]", "value": "Active"},
      {"measurement": "Activity", "setting": "C6 [20]", "value": "Active"},
      {"measurement": "Activity", "setting": "LN-18 [21]", "value": "Active"}
    ]},
    {"smiles": "O=C1c2ccccc2C(=O)N1c1nc2scc(-c3ccc(-c4ccccc4)cc3)n2n1", "values": [
      {"measurement": "pIC50", "setting": "C6 [1]", "value": 5.24},
      {"measurement": "pIC50", "setting": "LN-18 [2]", "value": 5.05},
      {"measurement": "solubility", "setting": "[22]", "value": "Insoluble"}
    ]},
    {"smiles": "COc1ccc(-c2csc3nc(/N=C/c4ccc(Cl)cc4Cl)nn23)cc1", "values": [
      {"measurement": "pIC50", "setting": "C6 [1]", "value": 5.12},
      {"measurement": "pIC50", "setting": "LN-18 [2]", "value": 4.67},
      {"measurement": "solubility", "setting": "[22]", "value": "Insoluble"}
    ]},
    {"smiles": "O=[N+]([O-])c1ccc(-c2csc3nc(/N=C/c4ccc(Cl)cc4)nn23)cc1", "values": [
      {"measurement": "pIC50", "setting": "C6 [1]", "value": 5.06},
      {"measurement": "pIC50", "setting": "LN-18 [2]", "value": 4.90},
      {"measurement": "inhibition", "setting": "C6 [3]", "value": "Active"},
      {"measurement": "inhibition", "setting": "LN-18 [4]", "value": "Active"},
      {"measurement": "Activity", "setting": "C6 [5]", "value": 13.6, "unit": "um/hr"},
      {"measurement": "Activity", "setting": "LN-18 [6]", "value": 15.04, "unit": "um/hr"},
      {"measurement": "Activity", "setting": "C6 [23]", "value": 66.5, "unit": "%"},
      {"measurement": "Activity", "setting": "LN-18 [24]", "value": 50, "unit": "%"},
      {"measurement": "Activity", "setting": "C6 [9]", "value": 35, "unit": "%"},
      {"measurement": "Activity", "setting": "LN-18 [10]", "value": 35, "unit": "%"},
      {"measurement": "inhibition", "setting": "Rattus norvegicus", "value": "Dose-Dependent Effect"},
      {"measurement": "inhibition", "setting": "LN-18 [11]", "value": "Dose-Dependent Effect"},
      {"measurement": "inhibition", "setting": "C6 [12]", "value": "Dose-Dependent Effect"},
      {"measurement": "inhibition", "setting": "C6 [13]", "value": "Dose-Dependent Effect"},
      {"measurement": "inhibition", "setting": "[14]", "value": "Dose-Dependent Effect"},
      {"measurement": "inhibition", "setting": "[15]", "value": "Dose-Dependent Effect"},
      {"measurement": "Activity", "setting": "C6 [16]", "value": "Active"},
      {"measurement": "Activity", "setting": "LN-18 [17]", "value": "Active"},
      {"measurement": "Activity", "setting": "C6 [18]", "value": "Active"},
      {"measurement": "Activity", "setting": "LN-18 [19]", "value": "Active"},
      {"measurement": "Activity", "setting": "C6 [20]", "value": "Active"},
      {"measurement": "Activity", "setting": "LN-18 [21]", "value": "Active"}
    ]}
  ]
}
